Measurements published in publication PMC10499049, “Characterization of norbelladine synthase and noroxomaritidine/norcraugsodine reductase reveals a novel catalytic route for the biosynthesis of Amaryllidaceae alkaloids including the Alzheimer’s drug galanthamine” (Frontiers in Plant Science, 2023).

Key:
[1] = molecular target: T1, LaNR (Leucojum aestivum, UniProt Z9Z857OJM6); assay: HPLC-MS/MS of norbelladine formed, with and without NADPH; type: biochemical; details: […] NADPH; […] tyramine, […],4-DHBA; […] sodium citrate pH […]; […] C; […] h
T1 construct: full-length 269 aa (29 kDa), N-terminal MBP fusion (pMAL-c2x), tag kept, E. coli Rosetta (DE3) pLysS

[2] = molecular target: T2, NpNR (Narcissus papyraceus, UniProt A0A346TLF8); assay: as above; type: biochemical; details: 1 mM NADPH; 10 uM tyramine, 300 uM 3,4-DHBA; 100 mM sodium citrate pH 6.0; 35 C; 2 h
T2 construct: gene NorRed1; full-length 269 aa (29 kDa), N-terminal MBP fusion (pMAL-c2x), tag kept, E. coli Rosetta (DE3) pLysS

[3] = molecular target: N. papyraceus noroxomaritidine/norcraugsodine reductase, yeast two-hybrid fusions (Narcissus papyraceus)
Sequence of N. papyraceus noroxomaritidine/norcraugsodine reductase, yeast two-hybrid fusions (Narcissus papyraceus) (A0A346TLF8 entry or part of it): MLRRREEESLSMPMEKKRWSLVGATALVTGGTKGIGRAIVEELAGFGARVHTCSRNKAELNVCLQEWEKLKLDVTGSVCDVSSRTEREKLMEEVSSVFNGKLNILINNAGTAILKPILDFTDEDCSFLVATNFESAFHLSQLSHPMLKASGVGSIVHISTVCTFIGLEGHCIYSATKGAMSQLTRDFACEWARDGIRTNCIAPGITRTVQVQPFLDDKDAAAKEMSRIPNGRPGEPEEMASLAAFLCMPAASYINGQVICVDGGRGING

T1 sequence (Z9Z857OJM6 1-271): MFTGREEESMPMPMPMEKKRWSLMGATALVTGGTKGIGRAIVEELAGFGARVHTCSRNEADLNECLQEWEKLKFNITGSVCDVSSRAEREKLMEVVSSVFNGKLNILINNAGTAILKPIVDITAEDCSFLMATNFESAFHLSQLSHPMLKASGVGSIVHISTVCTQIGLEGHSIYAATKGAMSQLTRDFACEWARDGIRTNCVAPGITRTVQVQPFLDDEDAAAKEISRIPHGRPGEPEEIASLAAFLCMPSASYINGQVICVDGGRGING
T2 sequence (A0A346TLF8 1-269): as the sequence (A0A346TLF8 entry or part of it) above

| norbelladine produced by yeast cultures co-expressing NpNBS and NpNR, fed with tyramine and 3,4-DHBA (HPLC-MS/MS, peak area relative to papaverine); none detected with either enzyme alone (relative peak area ratio) [3] | Compound | HPLC-MS/MS of norbelladine formed, with and without NADPH [1] | HPLC-MS/MS of norbelladine formed, with and without NADPH [2] |
| --- | --- | --- | --- |
| – | NC(=O)C1=CN([C@@H]2O[C@H](COP(=O)(O)OP(=O)(O)OC[C@H]3O[C@@H](n4cnc5c(N)ncnc54)[C@H](OP(=O)(O)O)[C@@H]3O)[C@@H](O)[C@H]2O)C=CC1 [NADPH] | NR assays lacking NADPH resulted in no norbelladine production | NR assays lacking NADPH resulted in no norbelladine production |
| 0.22 | N. papyraceus norbelladine synthase, yeast two-hybrid fusions (enzyme) | – | – |
